Measured values reported in publication PMC11410929, “Biochemical and crystallographic studies of L,D-transpeptidase 2 from Mycobacterium tuberculosis with its natural monomer substrate” (Communications Biology, 2024).
Like-named read-outs stand apart in the source and are kept apart here. *1 amine or outer side, *2 acyl side, *3 side chain or, on linkers, in order; H or OH if unused. Where a SMILES comes first, the peptide text is derived from it. [ ]: non-standard residue; d: D form. d(γGlu) = O=C(O)[C@@H](CCC(=O)[*:2])N[*:1]

Tests used:
LdtMt2 [1] = target: T1, LdtMt2 (Mycobacterium tuberculosis, UniProt I6Y9J2); assay: biochemical; format: binding; details: for ΔTm at 500 µM: pH 7.5, read-out: Shift in melting temperature compared to unmodified LdtMt2, 500 µM; for ΔTm at 1000 µM: pH 7.5, read-out: Shift in melting temperature compared to unmodified LdtMt2, 1 mM; for Shift in melting temperature compared to unmodified LdtMt2, 500 µM / Shift in melting temperature compared to unmodified LdtMt2, 1 mM / Tm 500 µM / Tm 1 mM: pH 7.5
T1 sequence (I6Y9J2 56-408): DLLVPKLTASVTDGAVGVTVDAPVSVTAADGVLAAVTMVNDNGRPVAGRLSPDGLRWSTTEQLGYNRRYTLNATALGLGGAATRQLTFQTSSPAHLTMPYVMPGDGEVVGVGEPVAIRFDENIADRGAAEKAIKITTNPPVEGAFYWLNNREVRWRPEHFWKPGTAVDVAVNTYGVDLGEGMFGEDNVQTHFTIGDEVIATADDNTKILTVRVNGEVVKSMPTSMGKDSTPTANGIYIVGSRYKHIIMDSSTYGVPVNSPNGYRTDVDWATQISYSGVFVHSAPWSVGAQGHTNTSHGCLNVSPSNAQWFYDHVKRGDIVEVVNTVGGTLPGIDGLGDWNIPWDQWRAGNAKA
Protocol: Differential scanning fluorometric thermal shift assays[32]
LdtMt2 (5 µM) was incubated with peptidoglycan fragments (500 µM or 1 mM) in buffer (50 mM tris pH 7.5) for 30 minutes at room temperature, after which time SYPRO Orange (final concentration 6x, according to manufacturer’s definition, Invitrogen) was added. Melting temperatures […]
See Methods for experimental details.
Table S1. […] The melting

LdtMt2 [2] = target: T1, LdtMt2; assay: biochemical; format: biochemical
LdtMt2 [3] = target: T1, LdtMt2; details: thiol-reactive fluorescent probe assay; quadruplicate; ref 6,7 (supplement); cited from earlier work
DAAO and HRP = assay: Transpeptidase interference assay (no LdtMt2, D-Ala as substrate); format: biochemical; details: for Transpeptidase interference assay pIC50 (mean ± SD): DAAO 2 U/mL, HRP 2 U/mL, FAD 40 µM, Amplex red 10 µM, 30 min rt, then D-alanine 500 nM, pH 8.0, quadruplicate
Protocol: The transpeptidase interference assay was performed as described above, with the modification that the LdtMt2 mixture was replaced by 5 µL assay buffer, and the substrate was replaced by D-Ala (500 nM final concentration). Data were analysed using Prism 10 (GraphPad).
Figure S14. Dose-response curves of the transpeptidase interference assay with compounds
14-24. The specified inhibitors were incubated with DAAO (2 U/mL), HRP (2 U/mL), FAD (40 μM) and
Amplex red (10 μM) in 50 mM sodium phosphate pH 8.0 with 100 mM NaCl at room temperature for 30
minutes, after which time D-alanine (500 nM) was added. The pIC50 values and compound structures
See Methods for experimental details. Individual data points are shown.

LdtMt2 [4] = target: T1, LdtMt2; details: pH 8
LdtMt2 [5] = target: T1, LdtMt2; details: pH 7.5
LdtMt2 [6] = target: T1, LdtMt2; format: biochemical; details: pH 7.5
LdtMt2 [7] = target: T1, LdtMt2; details: cited from earlier work
[8] = LdtMt2 500 nM, 30 min preincubation rt, substrate 1 35 µM, pH 8.0, 37 °C, n=3, read-out: pIC50, LdtMt2 inhibition by non-substrate peptidoglycan fragments (converted)

Work on `C[C@H](N)C(=O)N[C@H](CCC(=O)N[C@@H](CCCCN)C(=O)N[C@H](C)C(=O)N[C@H](C)C(=O)O)C(=O)O` [Compound 8, L-Ala-D-iGlu-L-Lys-D-Ala-D-Ala, reference compound] yielded a ΔTm at 500 µM (LdtMt2 [1]) of 1.5 °C, a ΔTm at 1000 µM (LdtMt2 [1]) of 2 °C and an IC50 (LdtMt2 [2]; [8]) of 15.8 µM.

Work on `C[C@H](N)C(=O)N[C@H](CCC(=O)N[C@@H](CCCCN)C(=O)N[C@H](C)C(=O)O)C(=O)O` [Compound 10, L-Ala-D-iGlu-L-Lys-D-Ala, reference compound] (H-A[d(γGlu)]K[dA]-OH) yielded a ΔTm at 500 µM (LdtMt2 [1]) of 1.5 °C, a ΔTm at 1000 µM (LdtMt2 [1]) of 3 °C and an IC50 (LdtMt2 [2]; [8]) of 15.8 µM.

Work on `C[C@H](N)C(=O)N[C@H](CCC(=O)N[C@@H](CCC[C@@H](N)C(=O)O)C(=O)O)C(=O)O` [Compound 12, reference compound] yielded a ΔTm at 500 µM (LdtMt2 [1]) of 0.5 °C and a ΔTm at 1000 µM (LdtMt2 [1]) of 1 °C.

`N[C@H](CCC[C@H](NC(=O)CC[C@@H](N)C(=O)O)C(=O)O)C(=O)O` [Compound 13, D-γ-Glu-m-DAP, reference compound] showed a ΔTm at 500 µM (LdtMt2 [1]) of 1 °C and a ΔTm at 1000 µM (LdtMt2 [1]) of 1.5 °C.

In the case of `C[C@@H](O)[C@H]1C(=O)N2C(C(=O)O)=C(S[C@@H]3CN[C@H](C(=O)N(C)C)C3)[C@H](C)[C@H]12` [Compound 14, Meropenem], the “Fluorogenic probe assay pIC50 (mean ± SD)” value (LdtMt2 [3]) is given as 5.9 ± 0.04, the IC50 (LdtMt2 [2]; LdtMt2 500 nM, 30 min preincubation rt, substrate 1 35 µM, 50 mM sodium phosphate pH 8.0, 100 mM NaCl, 37 °C, quadruplicate, read-out: Transpeptidase activity assay pIC50 (mean ± SD) (converted)) is given as 0.631 µM and the “Transpeptidase interference assay pIC50 (mean ± SD)” value (DAAO and HRP) is given as < 4.0.

For `C[C@@H](O)[C@H]1C(=O)N2C(C(=O)O)=C([C@H]3CCCO3)S[C@H]12` [Compound 15, Faropenem], the “Transpeptidase interference assay pIC50 (mean ± SD)” value (DAAO and HRP) was < 4.0.

For `O=c1c2ccccc2[se]n1-c1ccccc1` [Compound 24, Ebselen], the “Fluorogenic probe assay pIC50 (mean ± SD)” value (LdtMt2 [3]) is given as 6.7 ± 0.04, the “Transpeptidase activity assay pIC50 (mean ± SD)” value (LdtMt2 [2]; LdtMt2 500 nM, 30 min preincubation rt, substrate 1 35 µM, 50 mM sodium phosphate pH 8.0, 100 mM NaCl, 37 °C, quadruplicate) is given as 6.8 ± 0.2 and the “Transpeptidase interference assay pIC50 (mean ± SD)” value (DAAO and HRP) is given as 5.0 ± 0.4. For the same molecule, the “Interference with the DAAO/HRP assay” value (DAAO and HRP; inhibition of DAAO and HRP, in words) was “cause interference”.

In the case of “GlcNAc-MurNAc-L-Ala-D-iGluNH2-m-DAPNH2-D-Ala [Compound 1]”, the Reaction rate (LdtMt2 [4]) is reported as 120.0 ± 1.7 RFU min^−1, the Vmax (LdtMt2 [4]) is reported as “Ambiguous” and the “Covalent adducts of LdtMt2 (SPE-MS)” value (LdtMt2 [5]) is reported as “no covalent adducts of LdtMt2 were observed”. For the same molecule, the “Shift in melting temperature compared to unmodified LdtMt2, 500 µM” value (LdtMt2 [1]) was “+1.5 °C”, the “Shift in melting temperature compared to unmodified LdtMt2, 1 mM” value (“Shift in melting temperature … 1 mM” for short) (LdtMt2 [1]) was “+2.0 °C” and the “Tm 500 µM” value (LdtMt2 [1]) was 45 °C. For the same molecule, the “Tm 1 mM” value (LdtMt2 [1]) was 45.5 °C and the “LdtMt2 turnover / transpeptidase product formation (LC-MS)” value (LdtMt2 [6]) was “led to formation of products”.

For “GlcNAc-MurNAc-L-Ala-D-iGluNH2-m-DAPNH2-D-Ala-D-Ala [Compound 4]”, the “Shift in melting temperature … 1 mM” value (LdtMt2 [1]) was “+2.5 °C”, the “Tm 500 µM” value (LdtMt2 [1]) was 45.5 °C and the “Tm 1 mM” value (LdtMt2 [1]) was 46 °C. For the same molecule, the “LdtMt2 turnover / transpeptidase product formation (LC-MS)” value (LdtMt2 [6]) was “did not manifest evidence for reaction” and the “LdtMt2 inhibition by non-substrate peptidoglycan fragments, in words” value (LdtMt2 [2]; pH 8) was “modest LdtMt2 inhibition”.

With “GlcNAc-Muramitol-L-Ala-D-iGluNH2-m-DAPNH2-D-Ala [Compound 2]” the “LdtMt2 turnover / transpeptidase product formation (LC-MS)” value (LdtMt2 [6]) was “led to formation of products”.

For “GlcNAc-muramitol-L-Ala-D-iGluNH2-m-DAPNH2-D-Ala-D-Ala [reduced pentapeptide monomer of Mtb]”, the “LdtMt2 substrate or not” value (LdtMt2 [7]) is listed as “is not an LdtMt2 substrate”.

With “L-Ala-D-iGluNH2-L-Lys-D-Ala [Compound 11]” the “LdtMt2 turnover / transpeptidase product formation (LC-MS)” value (LdtMt2 [6]) was “is not a substrate for LdtMt2”.

“lactoyl-L-Ala-D-iGluNH2-m-DAPNH2-D-Ala [Compound 3]” gave a Km (LdtMt2 [4]) of 6.2 mM, a Reaction rate (LdtMt2 [4]) of 224.2 ± 2.6 RFU min^−1 and a Vmax (LdtMt2 [4]) of 1.4 ± 0.5. It also gave a kcat (LdtMt2 [4]) of 2.6 ± 0.9, a kcat/KM (LdtMt2 [4]) of 0.07 M⁻¹ s⁻¹ and a kcat/Km (LdtMt2 [4]) of 0.07 M⁻¹ s⁻¹. The “Covalent adducts of LdtMt2 (SPE-MS)” value (LdtMt2 [5]) was “no covalent adducts of LdtMt2 were observed”, the “Shift in melting temperature compared to unmodified LdtMt2, 500 µM” value (LdtMt2 [1]) was “+1.5 °C” and the “Shift in melting temperature … 1 mM” value (LdtMt2 [1]) was “+2.0 °C”. For the same molecule, the “Tm 500 µM” value (LdtMt2 [1]) was 45 °C, the “Tm 1 mM” value (LdtMt2 [1]) was 45.5 °C and the “LdtMt2 turnover / transpeptidase product formation (LC-MS)” value (LdtMt2 [6]) was “led to formation of products”.
